Measurements as given in PMC9837035 (Nature Communications, 2023).
“And” between values parts separate entries of the source, which are not always exact repeats. Identical values can stand only once. Like-named read-outs stand apart in the source and are kept apart here.

Legend:
DOT1L = biological target: T1, DOT1L (Homo sapiens, UniProt Q8TEK3); test: Radioisotope-based methyltransferase assay (selectivity); type: biochemical
T1 construct: purchased Reaction Biology

SUV39H1 = biological target: T2, SUV39H1 (Homo sapiens, UniProt O43463); test: as above; type: biochemical
T2 construct: purchased Reaction Biology

[1] = system: G9a and GLP in HUDEP-2 cells; test: Western blotting of G9a and GLP levels in HUDEP-2 cells; type: cell-based, human
Protocol: Preparation of cell lysates and western blotting were performed as described previously. Protein from cells lysates in lysis buffer (50 mM Tris-HCl (pH 7.5), 150 mM NaCl, 5 mM EDTA, 0.1% NP-40, 1 mM dithiothreitol) were separated by sodium dodecyl sulfate–polyacrylamide gel electrophoresis (SDS-PAGE) and transferred to a polyvinylidene difluoride (PVDF) membrane (Millipore) by electroblotting. The membranes incubated with primary antibodies overnight at 4 °C and secondary antibodies for 1 h at room temperature. The immune complexes were detected with the Immobilon Western Chemiluminescent HRP Substrate (Millipore). Luminescence was analyzed on a FUSION SOLO S (Vilber). Western blot bands were visualized using Evolution Capt software (M&S Instruments Inc.). Primary antibodies used were anti-G9a (1:1000, CST, #3306), anti–α-tubulin (1:5000, Abcam, ab18251), anti-H3K9me2 (1:3000, Abcam, ab1220), anti-H3 (1:5000, Abcam, ab1791), anti-H3K27me3 (1:3000, Sigma, 07-449), anti-GLP (1:1000, CST, #35005), anti-FLAG (100 ng/ml, Fujifilm, 01422383), anti-His (1:5000, MBL, PM032), anti-BCL11A (1:1000, abcam, ab19487), anti-ZBTB7A (1:1000, CST, #50565), anti-CHD3 (1:1000, Novus Biologicals, NB100-60412), and anti-CHD4 (1:1000, abcam, ab240640). Uncropped scans of all of the blots are available in Source Data file.

[2] = Body weight of mice during 5-week administration; type: in vivo
Protocol: The dosing solution contained 15% DMSO, 17.5% Cremophor EL, 8.75% EtOH, 8.75% HCO-40, and 50% PBS. Blood samples were collected once a week by Retro Orbital Sampling (75 μL Calibrated Micropipette; Drummond Scientific Company) during isoflurane anesthesia. Blood RNA was extracted using NucleoSpin RNA Blood (Takara Bio Inc.). The weight of each mouse was measured every 3 or 4 days.

[3] = Pharmacokinetic (PK) assay; type: in vivo, mice
Protocol: PK studies were performed using 8-week-old male Crl:CD1 ICR mice in accordance with the animal experimental protocol, and procedures were approved by the Animal Care and Ethics Committee of Sekisui Medical. […] […] RK-701 in samples were analyzed by liquid chromatography-tandem mass spectrometry (LC–MS/MS) after deproteinization with acetonitrile. […] PK parameters were calculated using the program Phenix WinNolin (Certara).
The LC-MS/MS system comprised of ACQUITY Ultra Performance LC (Waters) and 4000 QTRAP (Sciex). Acquity UPLC BEH C18 (2.1 × 50 mm, 1.7 μm, Waters) was used as analytical column. The mobile phase consisted of 0.1% formic acid in water (mobile phase A) and acetonitrile (mobile phase B) at a total flow rate of 0.5 mL/min with a column temperature of 40 °C. The chromatographic separation was achieved using gradient elution. The gradient program was: 20% B from 0.0–0.1 min, 20–95% B from 0.1–1.5 min, 95–95% B from 1.5–2.0 min, and 20% B from 2.01–3.0 min. The MS/MS instrument was operated in positive-ion mode with an ion spray voltage of 4200 V, entrance potential of 10 V and source temperature at 600 °C. The curtain gas was set at 12 psi, ion source gas 1 at 40 psi, ion source gas 2 at 50 psi. […] Data acquisition and quantitation were performed by using Analyst (ver.1.4.3, Sciex).

[4] = system: bone marrow cells of rats; test: In vivo micronucleus assay
Description: A negative control group was established, where the animals received orally 5% methylcellulose solution. […] We counted erythrocytes, recorded the frequencies of polychromatic erythrocyte (PCE) cells in 500 erythrocytes and micronucleated polychromatic erythrocyte (MNPCE) cells in 4000 PCE cells, and calculated the average frequency and the standard deviations for each treatment groups.

EZH1 = EZH1 (Homo sapiens, UniProt Q92800); test: biochemical
EZH2 = EZH2 (Homo sapiens, UniProt Q15910); test: biochemical
PRMT8 = PRMT8 (Homo sapiens, UniProt Q9NR22); test: biochemical
[5] = male, Crl:CD1 ICR, mouse, ip, mice, plasma, single intraperitoneal 25 mg/kg
[6] = Dose 10 mg/kg, individual animals
[7] = Dose 30 mg/kg, individual animals
[8] = Dose 100 mg/kg, individual animals
[9] = male rats, oral 2 weeks, 10 mg/kg, Mean ± S.D.
[10] = male rats, oral 2 weeks, 30 mg/kg, Mean ± S.D.
[11] = male rats, oral 2 weeks, 100 mg/kg, Mean ± S.D.

T1 sequence (Q8TEK3 whole entry): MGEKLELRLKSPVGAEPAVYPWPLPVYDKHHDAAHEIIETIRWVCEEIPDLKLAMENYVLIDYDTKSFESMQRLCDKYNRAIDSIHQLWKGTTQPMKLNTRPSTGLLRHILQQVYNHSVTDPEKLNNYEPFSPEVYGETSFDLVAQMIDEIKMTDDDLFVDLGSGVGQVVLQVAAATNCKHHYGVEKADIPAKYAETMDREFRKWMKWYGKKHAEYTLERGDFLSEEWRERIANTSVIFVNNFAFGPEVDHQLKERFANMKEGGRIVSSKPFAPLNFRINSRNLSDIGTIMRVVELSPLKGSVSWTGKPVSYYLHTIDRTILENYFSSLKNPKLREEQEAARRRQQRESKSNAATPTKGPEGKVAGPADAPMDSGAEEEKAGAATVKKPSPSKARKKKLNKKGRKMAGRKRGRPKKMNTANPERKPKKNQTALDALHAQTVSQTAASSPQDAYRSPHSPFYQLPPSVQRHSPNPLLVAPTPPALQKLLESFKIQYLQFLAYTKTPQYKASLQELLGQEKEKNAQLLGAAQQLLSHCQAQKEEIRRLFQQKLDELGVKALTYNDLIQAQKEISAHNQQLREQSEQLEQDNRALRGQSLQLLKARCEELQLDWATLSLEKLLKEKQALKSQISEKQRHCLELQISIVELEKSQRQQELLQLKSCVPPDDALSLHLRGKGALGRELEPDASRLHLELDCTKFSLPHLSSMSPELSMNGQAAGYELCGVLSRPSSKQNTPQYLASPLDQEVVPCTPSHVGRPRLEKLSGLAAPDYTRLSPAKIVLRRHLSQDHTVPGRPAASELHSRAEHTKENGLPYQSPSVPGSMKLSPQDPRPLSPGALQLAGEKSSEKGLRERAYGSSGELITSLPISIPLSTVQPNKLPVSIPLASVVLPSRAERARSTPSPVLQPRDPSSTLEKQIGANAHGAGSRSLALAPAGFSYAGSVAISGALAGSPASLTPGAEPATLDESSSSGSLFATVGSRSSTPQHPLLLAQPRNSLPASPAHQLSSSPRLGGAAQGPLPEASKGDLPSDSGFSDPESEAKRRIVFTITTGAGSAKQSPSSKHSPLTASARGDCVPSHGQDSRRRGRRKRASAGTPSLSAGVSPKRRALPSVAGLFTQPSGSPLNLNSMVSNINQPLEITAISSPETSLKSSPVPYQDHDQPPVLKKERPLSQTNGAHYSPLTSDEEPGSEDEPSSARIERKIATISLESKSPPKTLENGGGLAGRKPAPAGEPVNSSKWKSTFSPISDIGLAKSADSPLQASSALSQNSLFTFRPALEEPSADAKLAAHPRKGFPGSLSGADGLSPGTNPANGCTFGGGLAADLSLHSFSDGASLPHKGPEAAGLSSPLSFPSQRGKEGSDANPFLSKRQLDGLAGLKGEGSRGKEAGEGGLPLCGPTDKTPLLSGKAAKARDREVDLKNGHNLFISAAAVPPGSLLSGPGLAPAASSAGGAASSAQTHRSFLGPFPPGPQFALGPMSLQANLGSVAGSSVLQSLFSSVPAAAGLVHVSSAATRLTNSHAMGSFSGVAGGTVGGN
T2 sequence (O43463 whole entry): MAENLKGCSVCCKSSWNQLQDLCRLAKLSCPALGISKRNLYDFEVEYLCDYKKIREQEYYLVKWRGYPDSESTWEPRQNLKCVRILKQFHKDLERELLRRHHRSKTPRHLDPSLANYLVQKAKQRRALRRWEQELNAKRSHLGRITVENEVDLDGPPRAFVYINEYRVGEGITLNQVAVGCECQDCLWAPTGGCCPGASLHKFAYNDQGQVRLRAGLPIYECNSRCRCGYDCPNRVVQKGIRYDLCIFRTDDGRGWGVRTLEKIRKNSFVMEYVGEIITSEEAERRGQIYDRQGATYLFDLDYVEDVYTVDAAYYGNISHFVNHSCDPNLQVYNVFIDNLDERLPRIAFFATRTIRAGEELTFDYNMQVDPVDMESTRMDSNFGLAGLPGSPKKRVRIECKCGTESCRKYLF
Sequence of PRMT8 (Q9NR22 whole entry): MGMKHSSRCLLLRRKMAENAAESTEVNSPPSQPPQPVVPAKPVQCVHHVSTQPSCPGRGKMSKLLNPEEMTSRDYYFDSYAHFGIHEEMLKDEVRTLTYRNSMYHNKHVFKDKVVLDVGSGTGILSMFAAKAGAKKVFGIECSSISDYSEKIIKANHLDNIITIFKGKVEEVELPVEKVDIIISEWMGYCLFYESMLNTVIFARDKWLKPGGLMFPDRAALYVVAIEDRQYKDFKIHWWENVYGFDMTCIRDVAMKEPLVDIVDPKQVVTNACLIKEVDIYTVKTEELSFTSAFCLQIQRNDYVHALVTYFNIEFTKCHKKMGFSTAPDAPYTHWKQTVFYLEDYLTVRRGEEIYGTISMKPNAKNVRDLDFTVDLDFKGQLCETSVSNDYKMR

Compound: Cc1c(C(=O)NC(CCC2CC2)C(=O)Nc2ccc(C#N)cc2)[nH]c2c1C(=O)CC(C)(C)C2 (stereo not drawn) [RK-701]
- IC50 (DOT1L; 1 μM SAM): > 100 µM
- IC50 (DOT1L; RK-701 in duplicate): > 100 µM
- IC50 (SUV39H1; SUV39H1, 1 μM SAM): > 100 µM
- IC50 (SUV39H1; SUV39H1, RK-701 in duplicate): > 100 µM
- expression levels of G9a and GLP [1]: did not affect
- body weight of individual mice ([2]; 20 mg/kg i.p., Day 0): 17.8 g and 17.5 g and 16.8 g and 16.2 g and 16.4 g
- body weight of individual mice ([2]; 20 mg/kg i.p., Day 4): 18.5 g and 17.7 g and 17.3 g and 17.2 g and 16.8 g and 17.4 g
- body weight of individual mice ([2]; 20 mg/kg i.p., Day 8): 18.4 g and 18.1 g and 17.4 g and 17.7 g and 16.7 g and 17.8 g
- body weight of individual mice ([2]; 20 mg/kg i.p., Day 11): 18.6 g and 18.2 g and 17.5 g and 17.6 g and 16.5 g and 17.1 g
- body weight of individual mice ([2]; 20 mg/kg i.p., Day 15): 18.7 g and 18.1 g and 17.7 g and 18.2 g and 16.6 g
- body weight of individual mice ([2]; 20 mg/kg i.p., Day 18): 19.3 g and 18.2 g and 17.8 g and 16.6 g
- body weight of individual mice ([2]; 20 mg/kg i.p., Day 22): 18 g and 19 g and 18.5 g and 17 g and 18.6 g
- body weight of individual mice ([2]; 20 mg/kg i.p., Day 25): 20.2 g and 19.5 g and 17.7 g and 18.3 g and 17.8 g and 18.8 g
- body weight of individual mice ([2]; 20 mg/kg i.p., Day 29): 20.4 g and 18.2 g and 19.8 g and 18.7 g and 16 g and 18.5 g
- body weight of individual mice ([2]; 20 mg/kg i.p., Day 32): 19.9 g and 20 g and 19 g and 19.7 g and 19.6 g
- body weight of individual mice ([2]; 50 mg/kg i.p., Day 0): 14.7 g and 16.5 g and 17.3 g and 16.4 g and 17.4 g
- body weight of individual mice ([2]; 50 mg/kg i.p., Day 4): 15.3 g and 18.3 g and 17.7 g and 17.3 g and 17.8 g
- body weight of individual mice ([2]; 50 mg/kg i.p., Day 8): 14.8 g and 17.7 g and 18.3 g and 18.1 g
- body weight of individual mice ([2]; 50 mg/kg i.p., Day 11): 16 g and 18 g and 18.7 g and 17.9 g and 18.5 g
- body weight of individual mice ([2]; 50 mg/kg i.p., Day 15): 15 g and 18 g and 19.1 g and 17.9 g and 18.5 g
- body weight of individual mice ([2]; 50 mg/kg i.p., Day 18): 15.1 g and 18.4 g and 19.3 g and 19.5 g
- body weight of individual mice ([2]; 50 mg/kg i.p., Day 22): 15.5 g and 18.9 g and 19.7 g and 19.8 g
- body weight of individual mice ([2]; 50 mg/kg i.p., Day 25): 16.7 g and 19.1 g and 20.6 g and 19.9 g and 20.4 g
- body weight of individual mice ([2]; 50 mg/kg i.p., Day 29): 16.3 g and 18.4 g and 19.6 g and 19 g and 20 g
- body weight of individual mice ([2]; 50 mg/kg i.p., Day 32): 16.7 g and 19.5 g and 21.2 g and 20 g
- mouse body weights ([2]; five-week continuous administration): no effect on mouse body weights
- concentration at 1 h ([3]; Time 1 h, read-out: concentration (pharmacokinetic properties)): 17.9827 µM and 11.6451 µM
- concentration at 1 h ([3]; Time 2 h, read-out: concentration (pharmacokinetic properties)): 17.6692 µM and 34.4874 µM
- concentration at 1 h ([3]; Time 4 h, read-out: concentration (pharmacokinetic properties)): 51.2832 µM and 42.7733 µM
- concentration at 1 h ([3]; Time 8 h, read-out: concentration (pharmacokinetic properties)): 20.155 µM and 23.2902 µM
- AUC(0-inf) [3, 5]: 418 ± 7 µM·h
- Cmax [3, 5]: 42.4 µM
- Tmax [3, 5]: 4 h
- half-life [3, 5]: 1.4 ± 0.1 h
- concentration at 1 h ([3]; male, Crl:CD1 ICR, mouse, plasma, intraperitoneal, 25 mg/kg, Time 1 h, read-out: concentration (pharmacokinetic properties)): 9.2 µM
- concentration at 2 h ([3]; male, Crl:CD1 ICR, mouse, plasma, intraperitoneal, 25 mg/kg, Time 2 h, read-out: concentration (pharmacokinetic properties)): 25.8 µM
- concentration at 4 h ([3]; male, Crl:CD1 ICR, mouse, plasma, intraperitoneal, 25 mg/kg, Time 4 h, read-out: concentration (pharmacokinetic properties)): 33.1 µM
- concentration at 8 h ([3]; male, Crl:CD1 ICR, mouse, plasma, intraperitoneal, 25 mg/kg, Time 8 h, read-out: concentration (pharmacokinetic properties)): 28.2 µM
- MNPCE (%) [4, 6]: 0.15% and 0.18% and 0.13% and 0.23%
- No. of PCE in 500 erythrocytes [4, 6]: 331 and 285 and 278 and 305 and 288
- Number of MNPCE in 4000 PCE [4, 6]: 6 and 7 and 5 and 9
- PCE (%) [4, 6]: 66.2% and 57% and 55.6% and 61% and 57.6%
- MNPCE (%) [4, 7]: 0.08% and 0.1%
- No. of PCE in 500 erythrocytes [4, 7]: 299 and 308 and 294 and 330 and 306
- Number of MNPCE in 4000 PCE [4, 7]: 3 and 4
- PCE (%) [4, 7]: 59.8% and 61.6% and 58.8% and 66% and 61.2%
- MNPCE (%) [4, 8]: 0.13% and 0.1% and 0.18% and 0.15%
- No. of PCE in 500 erythrocytes [4, 8]: 258 and 313 and 314 and 323 and 328
- Number of MNPCE in 4000 PCE [4, 8]: 5 and 4 and 7 and 6
- PCE (%) [4, 8]: 51.6% and 62.6% and 62.8% and 64.6% and 65.6%
- MNPCE (%) [4, 9]: 0.17 ± 0.04%
- No. of PCE in 500 erythrocytes [4, 9]: 297 ± 21
- PCE (%) [4, 9]: 59.5 ± 4.2%
- MNPCE (%) [4, 10]: 0.09 ± 0.01%
- No. of PCE in 500 erythrocytes [4, 10]: 307 ± 14
- Number of MNPCE in 4000 PCE [4, 10]: 4 ± 1
- PCE (%) [4, 10]: 61.5 ± 2.8%
- MNPCE (%) [4, 11]: 0.13 ± 0.03%
- No. of PCE in 500 erythrocytes [4, 11]: 307 ± 28
- Number of MNPCE in 4000 PCE [4, 11]: 5 ± 1
- PCE (%) [4, 11]: 61.4 ± 5.6%
- Number of MNPCE in 4000 PCE ([4]; male rats, oral once a day 2 weeks, 10 mg/kg, Mean ± S.D.): 7 ± 1
- formation of micronuclei in bone marrow cells ([4]; rats, oral, up to 100 mg/kg, two weeks): did not cause the formation of micronuclei
- IC50 (EZH1): > 100 µM
- IC50 (EZH2): > 100 µM
- IC50 (PRMT8): > 100 µM
